Assay results taken from PubChem BioAssay (NCI).
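Dose response: 5 concentrations. Exposure: 48 h. Format: 96-well plates. Endpoint: linear interpolation; highest concentration if not reached. GI50 is the concentration that inhibits growth by half. TGI marks complete inhibition of growth.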

Assays:
Assay in all cases: NCI anticancer screen, dose series, 48 h
CCRF-CEM leukemia = system: CCRF-CEM leukemia
K-562 leukemia = system: K-562 leukemia
MALME-3M melanoma = system: MALME-3M melanoma
NCI-H23 lung = system: NCI-H23 lung
RXF 393 renal = system: RXF 393 renal
SN12C renal = system: SN12C renal
SW-620 colon = system: SW-620 colon
SR leukemia = system: SR leukemia
U251 CNS = system: U251 CNS
MDA-MB-231 breast = system: MDA-MB-231 breast

Compound | GI50 (CCRF-CEM leukemia) [µM] | TGI (CCRF-CEM leukemia) [µM] | GI50 (K-562 leukemia) [µM] | TGI (K-562 leukemia) [µM] | GI50 (MALME-3M melanoma) [µM] | TGI (MALME-3M melanoma) [µM] | GI50 (NCI-H23 lung) [µM] | TGI (NCI-H23 lung) [µM] | GI50 (RXF 393 renal) [µM] | TGI (RXF 393 renal) [µM] | GI50 (SN12C renal) [µM] | TGI (SN12C renal) [µM] | GI50 (SW-620 colon) [µM] | TGI (SW-620 colon) [µM] | GI50 (SR leukemia) [µM] | TGI (SR leukemia) [µM] | GI50 (U251 CNS) [µM] | TGI (U251 CNS) [µM] | GI50 (MDA-MB-231 breast) [µM] | TGI (MDA-MB-231 breast) [µM]
CC(=O)[C@H]1CCC2[C@@H]3CC=C4C[C@@H]([O-])CC[C@]4(C)C3CC[C@@]21C.CC(=O)[C@H]1CCC2[C@@H]3CC=C4C[C@@H]([O-])CC[C@]4(C)C3CC[C@@]21C.CC(=O)[CH-]C(=O)c1ccccc1.CC(=O)[CH-]C(=O)c1ccccc1.Cl.[Ti+4] (stereo partly specified) | 10.6 | > 100 | 12.7 | > 100 | 16 | 37.3 | 13.4 | 29.5 | 27.1 | > 100 | 34.1 | > 100 | 39 | > 100 | – | – | – | – | – | –
N/N=C(/Cc1nc2ccc(C(=O)c3ccccc3)cc2[nH]c1=O)C(=O)Nc1ccc([N+](=O)[O-])cc1[N+](=O)[O-] | > 100 | > 100 | > 100 | > 100 | – | > 100 | > 100 | > 100 | – | > 100 | > 100 | > 100 | – | > 100 | > 100 | > 100 | > 100 | > 100 | – | –
CC1NC(=O)C2=C1C(=O)NC(=O)C2 (stereo unspecified) | > 100 | > 100 | > 100 | > 100 | – | – | > 100 | > 100 | > 100 | > 100 | > 100 | > 100 | > 100 | > 100 | – | – | – | – | > 100 | > 100
Cc1cc(C)c(-c2c(N)cc(Br)cc2Br)c(N)c1 | – | – | – | – | 5.09 | 20.3 | 4.89 | 18 | 3.16 | 8.78 | 7.41 | 21.9 | 3.93 | 16 | – | – | 4.73 | 17 | 4.85 | 19
Clc1cccc(C2N3CCCCC3[C@@H]3c4[nH]c5ccccc5c4CCN23)c1 (stereo partly specified) | – | 56.6 | – | 65.8 | – | 42.2 | – | 45 | – | 47.5 | – | 26.5 | – | > 100 | – | – | – | 73.5 | – | –
O=C1O/C(=C/c2ccccc2)C(c2ccccc2)=C1O | – | > 100 | – | > 100 | – | > 100 | – | 44.7 | – | 70.3 | – | > 100 | – | > 100 | – | – | – | 82.7 | – | > 100
CC1=CC(C)(C)NN1C1=NS(=O)(=O)c2ccccc2N1C | – | > 100 | – | > 100 | – | – | – | > 100 | – | > 100 | – | > 100 | – | > 100 | – | – | – | > 100 | – | > 100
Cc1nc2c(o1)C(=Nc1ccccc1)c1nc(C)oc1C2=Nc1ccccc1 | – | > 100 | – | > 100 | – | 41.6 | – | 63.7 | – | 37.5 | – | 34.8 | – | > 100 | – | > 100 | – | 33.1 | – | –
CN(/N=C/c1ccnc2ccccc12)c1c([N+](=O)[O-])cc([N+](=O)[O-])cc1[N+](=O)[O-] | – | > 100 | – | > 100 | – | 99.1 | – | > 100 | – | > 100 | – | > 100 | – | > 100 | – | – | – | > 100 | – | –
Nc1ccccc1C(=O)CCC1C(=O)NC(=S)NC1=O | – | > 100 | – | > 100 | – | > 100 | – | > 100 | – | > 100 | – | – | – | > 100 | – | > 100 | – | > 100 | – | –
O=C(/C=C/c1cccc([N+](=O)[O-])c1)c1ccc([N+](=O)[O-])cc1 | – | > 100 | – | > 100 | – | > 100 | – | > 100 | – | > 100 | – | > 100 | – | > 100 | – | > 100 | – | > 100 | – | –
COC(=O)C1C(=O)O[C@@H](c2cc(OC)c(OC)cc2OC)C1C(=O)OC (mixture of isomers) | – | > 100 | – | > 100 | – | > 100 | – | > 100 | – | > 100 | – | > 100 | – | > 100 | – | > 100 | – | > 100 | – | –
COc1ccc(S(=O)(=O)N(CC(=O)O)c2ccccc2)cc1 | – | > 100 | – | > 100 | – | > 100 | – | > 100 | – | > 100 | – | > 100 | – | > 100 | – | – | – | > 100 | – | –
C=CCC(N[C@@H](CO)c1ccccc1)c1cn(C(=O)OCC)c2ccccc12 (stereo partly specified) | 19.2 | 56.7 | 22.6 | > 100 | 17.1 | 39.1 | 20.5 | 49.6 | 22.8 | 84.2 | 21.4 | 39.2 | 28.6 | > 100 | – | – | 17.9 | 32.4 | 20.6 | 43.5
Clc1cccc(-c2nnc(-c3nn(-c4ccccc4)c4nc5ccccc5nc34)o2)c1 | – | > 100 | – | > 100 | – | > 100 | – | > 100 | – | > 100 | – | > 100 | – | > 100 | – | – | – | > 100 | – | –
COC(=O)C1=CC2C=CC(C1C(=O)OC)C1C(C(=O)OC)=C(C(=O)OC)C(C(=O)OC)=C(C(=O)OC)C21OC (stereo unspecified) | – | – | – | – | – | > 100 | – | > 100 | – | > 100 | – | > 100 | – | > 100 | – | > 100 | – | > 100 | – | –
CC(=O)[CH-]C(=O)c1ccccc1.CC(=O)[CH-]C(=O)c1ccccc1.O=S(=O)([O-])c1cc([O-])c2c([O-])cc(S(=O)(=O)[O-])cc2c1.[Na+].[Zr+4] | – | – | > 100 | > 100 | 53.1 | > 100 | – | – | – | – | 97.3 | > 100 | > 100 | > 100 | – | – | > 100 | > 100 | – | –
CCNC(=O)OCc1c(COC(=O)NCC)c(-c2ccc(Cl)c(Cl)c2)n2c1CCC2 | – | 21.4 | – | 37.8 | – | 30.7 | – | 26.3 | – | – | – | – | – | 68.8 | – | 30.1 | – | 28.6 | – | –
O=c1c(Cl)c(Cl)cnn1CCCl | – | 4.84 | – | 5.18 | – | 7.14 | – | 6.46 | – | 4.74 | – | 25.5 | – | 3.89 | – | – | – | 12.3 | – | –
